Experimental data taken from ChEMBL document CHEMBL1201861, “Genomics of Drug Sensitity in Cancer screening data, Wellcome Trust Sanger Institute”.

Key:
Assay in all cases: cells
NCI-H209 = assay type: functional, cell-based, Homo sapiens; settings: Homo sapiens, NCI-H209;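 also: growth inhibition of human NCI-H209 cells, measured by a cell viability assay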
Description: SANGER: Inhibition of human NCI-H209 cell growth in a cell viability assay.

no-11 = assay type: functional, cell-based, Homo sapiens; settings: Homo sapiens;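 also: growth inhibition of human NO-11 cells, read out with a cell viability assay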
Description: SANGER: Inhibition of human no-11 cell growth in a cell viability assay.

SW 954 = assay type: functional, cell-based, Homo sapiens; settings: Homo sapiens, SW 954;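 also: growth inhibition of SW954 human cancer cells, read out as cell viability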
Description: SANGER: Inhibition of human SW954 cell growth in a cell viability assay.

MFH-ino = assay type: functional, cell-based, Homo sapiens; settings: Homo sapiens, MFH-ino;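 also: growth inhibition of human MFH-ino cells, read out by a cell viability assay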
Description: SANGER: Inhibition of human MFH-ino cell growth in a cell viability assay.

EW-3 = assay type: functional, cell-based, Homo sapiens; settings: Homo sapiens, EW-3;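 also: cell viability assay read-out, IC50 reflects inhibition of growth of the EW-3 cells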
Description: SANGER: Inhibition of human EW-3 cell growth in a cell viability assay.

HCC 2998 = assay type: functional, cell-based, Homo sapiens; settings: Homo sapiens, HCC 2998;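 also: growth inhibition of human HCC2998 cells, measured with a cell viability read-out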
Description: SANGER: Inhibition of human HCC2998 cell growth in a cell viability assay.

NB10 = assay type: functional, cell-based, Homo sapiens; settings: Homo sapiens, NB10;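 also: growth inhibition of NB10 cells, read out by a cell viability assay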
Description: SANGER: Inhibition of human NB10 cell growth in a cell viability assay.

BB30-HNC = assay type: functional, cell-based, Homo sapiens; settings: Homo sapiens, BB30-HNC;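 also: growth inhibition of the cultured cell line, read out by a cell viability assay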
Description: SANGER: Inhibition of human BB30-HNC cell growth in a cell viability assay.

EM-2 = assay type: functional, cell-based, Homo sapiens; settings: Homo sapiens, EM-2;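 also: growth inhibition of EM-2 cells, read out with a cell viability assay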
Description: SANGER: Inhibition of human EM-2 cell growth in a cell viability assay.

GT3TKB = assay type: functional, cell-based, Homo sapiens; settings: Homo sapiens, GT3TKB;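 also: growth inhibition of the cell line, read out with a cell viability assay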
Description: SANGER: Inhibition of human GT3TKB cell growth in a cell viability assay.

RPMI-8226 = assay type: functional, cell-based, Homo sapiens; settings: Homo sapiens, RPMI-8226
Description: SANGER: Inhibition of human RPMI-8226 cell growth in a cell viability assay.

NCI-H226 = assay type: functional, cell-based, Homo sapiens; settings: Homo sapiens, NCI-H226;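 also: cell viability read-out used to gauge growth inhibition of the cells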
Description: SANGER: Inhibition of human NCI-H226 cell growth in a cell viability assay.

HOP-62 = assay type: functional, cell-based, Homo sapiens; settings: Homo sapiens, HOP-62;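 also: cell growth inhibition determined with a viability assay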
Description: SANGER: Inhibition of human HOP-62 cell growth in a cell viability assay.

OCUB-M = assay type: functional, cell-based, Homo sapiens; settings: Homo sapiens, OCUB-M;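 also: growth inhibition of the cancer cell line, read out through a cell viability assay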
Description: SANGER: Inhibition of human OCUB-M cell growth in a cell viability assay.

U-87 MG = assay type: functional, cell-based, Homo sapiens, U-87MG ATCC; settings: Homo sapiens, U-87 MG;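 also: growth inhibition of the cells measured with a viability assay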
Description: SANGER: Inhibition of human U-87-MG cell growth in a cell viability assay.

SF-268 = assay type: functional, cell-based, Homo sapiens; settings: Homo sapiens, SF-268;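 also: growth inhibition of SF-268 cells determined with a cell viability assay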
Description: SANGER: Inhibition of human SF268 cell growth in a cell viability assay.

PSN1 = assay type: functional, cell-based, Homo sapiens; settings: Homo sapiens, PSN1;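 also: suppression of growth of human PSN1 cells, read out by a cell viability assay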
Description: SANGER: Inhibition of human PSN1 cell growth in a cell viability assay.

MPP-89 = assay type: functional, cell-based, Homo sapiens; settings: Homo sapiens, MPP-89;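 also: growth inhibition of human MPP-89 cells, read out with a cell viability assay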
Description: SANGER: Inhibition of human MPP-89 cell growth in a cell viability assay.

EW-16 = assay type: functional, cell-based, Homo sapiens; settings: Homo sapiens, EW-16;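 also: growth inhibition of human EW-16 cells, read out as cell viability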
Description: SANGER: Inhibition of human EW-16 cell growth in a cell viability assay.

NEC8 = assay type: functional, cell-based, Homo sapiens; settings: Homo sapiens, NEC8;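 also: growth inhibition of human NEC8 cells, read out by a cell viability assay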
Description: SANGER: Inhibition of human NEC8 cell growth in a cell viability assay.

TK-10 = assay type: functional, cell-based, Homo sapiens; settings: Homo sapiens, TK-10;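 also: growth inhibition of TK-10 cells, read out in a cell viability assay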
Description: SANGER: Inhibition of human TK10 cell growth in a cell viability assay.

GAK = assay type: functional, cell-based, Homo sapiens; settings: Homo sapiens, GAK;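 also: cell growth inhibition read out by a cell viability assay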
Description: SANGER: Inhibition of human GAK cell growth in a cell viability assay.

ACN = assay type: functional, cell-based, Homo sapiens; settings: Homo sapiens, ACN;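 also: growth inhibition of the human ACN cell line, read out via cell viability testing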
Description: SANGER: Inhibition of human ACN cell growth in a cell viability assay.

ES8 = assay type: functional, cell-based, Homo sapiens; settings: Homo sapiens, ES8;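 also: growth inhibition of human ES8 cells, read out with a cell viability assay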
Description: SANGER: Inhibition of human ES8 cell growth in a cell viability assay.

LS-411N = assay type: functional, cell-based, Homo sapiens; settings: Homo sapiens, LS-411N
KINGS-1 = assay type: functional, cell-based, Homo sapiens; settings: Homo sapiens, KINGS-1;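 also: cell viability assay measuring suppression of KINGS-1 cell growth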
Description: SANGER: Inhibition of human KINGS-1 cell growth in a cell viability assay.

MZ7-mel = assay type: functional, cell-based, Homo sapiens; settings: Homo sapiens, MZ7-mel;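 also: growth inhibition of human MZ7-mel cells, measured by a cell viability assay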
Description: SANGER: Inhibition of human MZ7-mel cell growth in a cell viability assay.

A704 = assay type: functional, cell-based, Homo sapiens; settings: Homo sapiens, A704;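 also: growth inhibition of human A704 cells, read out with a cell viability assay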
Description: SANGER: Inhibition of human A704 cell growth in a cell viability assay.

SHP77 = assay type: functional, cell-based, Homo sapiens, SHP-77; settings: Homo sapiens, SHP77;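 also: growth inhibition of human SHP-77 cells measured by a cell viability assay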
Description: SANGER: Inhibition of human SHP-77 cell growth in a cell viability assay.

SH-4 = assay type: functional, cell-based, Homo sapiens; settings: Homo sapiens, SH-4;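 also: growth inhibition of SH-4 cells, read out with a cell viability assay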
Description: SANGER: Inhibition of human SH-4 cell growth in a cell viability assay.

ALL-PO = assay type: functional, cell-based, Homo sapiens; settings: Homo sapiens, ALL-PO;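 also: growth inhibition of ALL-PO cells, read out by a cell viability assay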
Description: SANGER: Inhibition of human ALL-PO cell growth in a cell viability assay.

COLO-668 = assay type: functional, cell-based, Homo sapiens; settings: Homo sapiens, COLO-668
Description: SANGER: Inhibition of human COLO-668 cell growth in a cell viability assay.

KNS-81-FD = assay type: functional, cell-based, Homo sapiens; settings: Homo sapiens, KNS-81-FD;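 also: growth inhibition of KNS-81-FD cells, read out with a cell viability assay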
Description: SANGER: Inhibition of human KNS-81-FD cell growth in a cell viability assay.

HEL = assay type: functional, cell-based, Homo sapiens; settings: Homo sapiens, HEL;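 also: growth inhibition of HEL cells, read out with a cell viability assay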
Description: SANGER: Inhibition of human HEL cell growth in a cell viability assay.

ES1 = assay type: functional, cell-based, Homo sapiens; settings: Homo sapiens, ES1;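 also: growth inhibition of ES1 cells, read out with a cell viability assay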
Description: SANGER: Inhibition of human ES1 cell growth in a cell viability assay.

LC-2-ad = assay type: functional, cell-based, Homo sapiens; settings: Homo sapiens, LC-2-ad;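 also: growth inhibition of human LC-2-ad cells, read out with a cell viability assay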
Description: SANGER: Inhibition of human LC-2-ad cell growth in a cell viability assay.

A498 = assay type: functional, cell-based, Homo sapiens; settings: Homo sapiens, A498;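 also: growth inhibition of human A498 cells, read out with a cell viability assay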
Description: SANGER: Inhibition of human A498 cell growth in a cell viability assay.

KM-H2 = assay type: functional, cell-based, Homo sapiens; settings: Homo sapiens, KM-H2;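 also: growth inhibition of KM-H2 cells, read out by a cell viability assay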
Description: SANGER: Inhibition of human KM-H2 cell growth in a cell viability assay.

KE-37 = assay type: functional, cell-based, Homo sapiens; settings: Homo sapiens, KE-37;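 also: growth inhibition of KE-37 cells, read out with a cell viability assay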
Description: SANGER: Inhibition of human KE-37 cell growth in a cell viability assay.

D-502MG = assay type: functional, cell-based, Homo sapiens; settings: Homo sapiens, D-502MG
Description: SANGER: Inhibition of human D-502MG cell growth in a cell viability assay.

SW982 = assay type: functional, cell-based, Homo sapiens; settings: Homo sapiens, SW982;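 also: growth inhibition of SW982 cells, read out with a cell viability assay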
Description: SANGER: Inhibition of human SW982 cell growth in a cell viability assay.

MZ2-MEL = assay type: functional, cell-based, Homo sapiens; settings: Homo sapiens, MZ2-MEL;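 also: growth inhibition of MZ2-MEL cells read out with a cell viability assay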
Description: SANGER: Inhibition of human MZ2-MEL cell growth in a cell viability assay.

BT-474 = assay type: functional, cell-based, Homo sapiens; settings: Homo sapiens, BT-474
Description: SANGER: Inhibition of human BT-474 cell growth in a cell viability assay.

SW684 = assay type: functional, cell-based, Homo sapiens; settings: Homo sapiens, SW684;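 also: growth inhibition of human SW684 cells, measured by a cell viability assay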
Description: SANGER: Inhibition of human SW684 cell growth in a cell viability assay.

SK-MEL-2 = assay type: functional, cell-based, Homo sapiens; settings: Homo sapiens, SK-MEL-2;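 also: growth inhibition of human SK-MEL-2 cells measured with a cell viability assay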
Description: SANGER: Inhibition of human SK-MEL-2 cell growth in a cell viability assay.

KMOE-2 = assay type: functional, cell-based, Homo sapiens; settings: Homo sapiens, KMOE-2;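 also: growth inhibition of human KMOE-2 cells, read out with a cell viability assay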
Description: SANGER: Inhibition of human KMOE-2 cell growth in a cell viability assay.

CGTH-W-1 = assay type: functional, cell-based, Homo sapiens; settings: Homo sapiens, CGTH-W-1;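 also: growth inhibition of human CGTH-W-1 cells measured by cell viability assay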
Description: SANGER: Inhibition of human CGTH-W-1 cell growth in a cell viability assay.

IST-MEL1 = assay type: functional, cell-based, Homo sapiens; settings: Homo sapiens, IST-MEL1;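 also: growth inhibition of the cell line, read out with a cell viability assay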
Description: SANGER: Inhibition of human IST-MEL1 cell growth in a cell viability assay.

**Q.** How did the IC50 (NCI-H209) turn out when `CO[C@H]1C[C@@H]2CC[C@@H](C)[C@@](O)(O2)C(=O)C(=O)N2CCCC[C@H]2C(=O)O[C@H]([C@H](C)C[C@@H]2CC[C@@H](OC(=O)C(C)(CO)CO)[C@H](OC)C2)CC(=O)[C@H](C)/C=C(\C)[C@@H](O)[C@@H](OC)C(=O)[C@H](C)C[C@H](C)/C=C/C=C/C=C/1C` [TEMSIROLIMUS] was run?
**A.** 0.153 µM

**Q.** And the IC50 (no-11)?
**A.** > 0.2 µM

**Q.** What about the IC50 (SW 954) of the same molecule?
**A.** > 0.2 µM

**Q.** And the IC50 (MFH-ino)?
**A.** > 0.2 µM

**Q.** What about the IC50 (EW-3) of the same molecule?
**A.** 0.0492 µM

**Q.** And the IC50 (HCC 2998)?
**A.** > 0.2 µM

**Q.** What about the IC50 (NB10) of the same molecule?
**A.** > 0.2 µM

**Q.** What about the IC50 (BB30-HNC) of the same molecule?
**A.** > 0.2 µM

**Q.** And the IC50 (EM-2)?
**A.** 0.0542 µM

**Q.** And the IC50 (GT3TKB)?
**A.** 0.0906 µM

**Q.** What about the IC50 (RPMI-8226) of the same molecule?
**A.** 0.00415 µM

**Q.** What about the IC50 (NCI-H226) of the same molecule?
**A.** > 0.2 µM

**Q.** And the IC50 (HOP-62)?
**A.** > 0.2 µM

**Q.** And the IC50 (OCUB-M)?
**A.** > 0.2 µM

**Q.** What about the IC50 (U-87 MG) of the same molecule?
**A.** > 0.2 µM

**Q.** And the IC50 (SF-268)?
**A.** > 0.2 µM

**Q.** What about the IC50 (PSN1) of the same molecule?
**A.** > 0.2 µM

**Q.** What about the IC50 (MPP-89) of the same molecule?
**A.** > 0.2 µM

**Q.** And the IC50 (EW-16)?
**A.** 0.0286 µM

**Q.** And the IC50 (NEC8)?
**A.** > 0.2 µM

**Q.** And the IC50 (TK-10)?
**A.** > 0.2 µM

**Q.** And the IC50 (GAK)?
**A.** > 0.2 µM

**Q.** And the IC50 (ACN)?
**A.** 0.013 µM

**Q.** And the IC50 (ES8)?
**A.** 0.00527 µM

**Q.** And the IC50 (LS-411N)?
**A.** > 0.2 µM

**Q.** What about the IC50 (KINGS-1) of the same molecule?
**A.** > 0.2 µM

**Q.** And the IC50 (MZ7-mel)?
**A.** 0.161 µM

**Q.** What about the IC50 (A704) of the same molecule?
**A.** > 0.2 µM

**Q.** And the IC50 (SHP77)?
**A.** > 0.2 µM

**Q.** And the IC50 (SH-4)?
**A.** > 0.2 µM

**Q.** And the IC50 (ALL-PO)?
**A.** > 0.2 µM

**Q.** What about the IC50 (COLO-668) of the same molecule?
**A.** > 0.2 µM

**Q.** What about the IC50 (KNS-81-FD) of the same molecule?
**A.** 0.138 µM

**Q.** What about the IC50 (HEL) of the same molecule?
**A.** 0.158 µM

**Q.** And the IC50 (ES1)?
**A.** 0.0245 µM

**Q.** What about the IC50 (LC-2-ad) of the same molecule?
**A.** > 0.2 µM

**Q.** And the IC50 (A498)?
**A.** > 0.2 µM

**Q.** And the IC50 (KM-H2)?
**A.** > 0.2 µM

**Q.** And the IC50 (KE-37)?
**A.** 0.0165 µM

**Q.** And the IC50 (D-502MG)?
**A.** > 0.2 µM

**Q.** And the IC50 (SW982)?
**A.** > 0.2 µM

**Q.** What about the IC50 (MZ2-MEL) of the same molecule?
**A.** 0.0569 µM

**Q.** And the IC50 (BT-474)?
**A.** > 0.2 µM

**Q.** What about the IC50 (SW684) of the same molecule?
**A.** > 0.2 µM

**Q.** What about the IC50 (SK-MEL-2) of the same molecule?
**A.** > 0.2 µM

**Q.** And the IC50 (KMOE-2)?
**A.** > 0.2 µM

**Q.** What about the IC50 (CGTH-W-1) of the same molecule?
**A.** 0.00575 µM

**Q.** What about the IC50 (IST-MEL1) of the same molecule?
**A.** 0.123 µM
